From patent US9314522B2, “Antitumors combinations containing antibodies recognizing specifically CD38 and bortezomib” (Sanofi, priority 2010, dated 2016)
Like-named read-outs stand apart in the source and are kept apart here.

Key:
[1] = test system: NCI-H929 tumor xenografts; settings: days 34, 37
Text: A product is considered to be active if log10 cell kill is greater than or equal to 0.7. A product is considered to be very active if log10 cell kill is greater than or equal to 2.8.
The combination will manifest therapeutic synergy when the log10 cell kill is greater than the value of the log10 cell kill of the best constituent administered alone at its maximum tolerated dose or at its highest dose tested.
The animals subjected to the experiment, generally mice, are subcutaneously grafted unilaterally or bilaterally with tumor cells or fragment on day 0. The animals bearing tumors are randomized based on their tumor size before being subjected to the various treatments and controls. Chemotherapy begins when tumors have reached a predetermined size after grafting, depending on the type of tumor, and the animals are observed every day. […] The groups are then weighed once or twice a week until the end of the trial.
The tumors are measured 1 to 5 times a week, depending on the tumor doubling time, until the tumor reaches approximately 750 mg, or until the animal dies (if this occurs before the tumor reaches 750 mg). The animals are necropsied immediately after euthanasia or death.
Hu38SB19 and Bortezomib treatments were started thirty four days after cell inoculation and doses were calculated based on individual animal body weights determined from the last measurement taken before dosing. Administration of PBS and hu38SB19 antibody was carried out through intraperitoneal (IP) injection and bortezomib by intravenous (IV) injection via the tail vein, using a 1.0 mL syringe fitted with a 27 gauge, ½ inch needle.
Thirty-three days after tumor cell inoculation, sixty-four mice were randomized into 8 groups (n=8) by tumor volume. […] Mice in each group were identified by a puncture in the ear.
Treatment groups included PBS control (200 μL/mouse/treatment), hu38SB19 antibody (5.0 mg/kg/treatment), bortezomib (1.0, 0.6 and 0.4 mg/kg/treatment) and three combination groups with hu38SB19 (5.0 mg/kg/treatment) and bortezomib (1.0, 0.6 and 0.4 mg/kg/treatment). PBS, hu38SB19 and bortezomib were administered twice per week for one week (days 34 and 37 for a total of 2 treatments). Treatments were started on day 34 post inoculation of tumor cells.
Tumor volumes were measured one to two times weekly in three dimensions using a caliper. The tumor volume was expressed in mm^3 (or mg) using the formula: V=Length×Width×Height×½.
Tumor Free Survivors (TFS): correspond to complete regression below the limit of palpation (63 mg) for the entire duration of the study (>100 days post last treatment).

[2] = Body weight loss as index of test agent toxicity in NCI-H929 tumor-bearing mice; format: in vivo, SCID mice; settings: days 34, 37
Text: The animals subjected to the experiment, generally mice, are subcutaneously grafted unilaterally or bilaterally with tumor cells or fragment on day 0. The animals bearing tumors are randomized based on their tumor size before being subjected to the various treatments and controls. Chemotherapy begins when tumors have reached a predetermined size after grafting, depending on the type of tumor, and the animals are observed every day. The different animal groups are weighed daily during treatment until the maximum weight loss is reached and subsequent full weight recovery has occurred. The groups are then weighed once or twice a week until the end of the trial.
Body weights were measured twice per week as a rough index of test agent toxicity. Tumor volume and body weight were determined and recorded by Labcat software.
Toxicity was declared at dosages inducing 20% body weight loss or 10% drug death, […]

[3] = Bortezomib IV 0.4 mg/kg/injection (total 0.8)
[4] = Bortezomib IV 0.4 mg/kg/injection (total 0.8), 0.4 mg/kg
[5] = Bortezomib IV 0.4 mg/kg/injection (total 0.8), listed as bortezomib, 0.4 mg/kg
[6] = Bortezomib IV 0.6 mg/kg/injection (total 1.2)
[7] = Bortezomib IV 0.6 mg/kg/injection (total 1.2), 0.6 mg/kg
[8] = Bortezomib IV 0.6 mg/kg/injection (total 1.2), listed as bortezomib, 0.6 mg/kg
[9] = Bortezomib IV 1.0 mg/kg/injection (total 2.0)
[10] = Bortezomib IV 1.0 mg/kg/injection (total 2.0), 1 mg/kg
[11] = Bortezomib IV 1.0 mg/kg/injection (total 2.0), listed as bortezomib, 1 mg/kg

## CC(C)C[C@H](NC(=O)[C@H](Cc1ccccc1)NC(=O)c1cnccn1)B(O)O [Bortezomib, [(1R)-3-methyl-1-({(2S)-3-phenyl-2-[(pyrazin-2-ylcarbonyl)amino]propanoyl}amino)butyl]boronic acid]
[1]; [3]
  T-C in days (tumor growth delay): 7 days
  Time for median tumor to reach 750 mg: 69 days
  log cell kill: 0.1
[1]; [4]
  % T/C: 74%
  Comments (anti-tumor activity rating): Inactive
  TFS at day 176 (tumor free survivors): 1/8
[1]; [5]
  % T/C: 45%
  Comments (anti-tumor activity rating): inactive
  TFS at day 176 (tumor free survivors): single TFS
[1]; [6]
  T-C in days (tumor growth delay): 18 days
  Time for median tumor to reach 750 mg: 80 days
  log cell kill: 0.3
[1]; [7]
  % T/C: 45%
  Comments (anti-tumor activity rating): Inactive
  TFS at day 176 (tumor free survivors): 0/8
[1]; [8]
  % T/C: 75%
  Comments (anti-tumor activity rating): inactive
  TFS at day 176 (tumor free survivors): No TFS
[1]; [9]
  % T/C: 15%
  T-C in days (tumor growth delay): 37 days
  Time for median tumor to reach 750 mg: 99 days
  log cell kill: 0.6
[1]; [10]
  Comments (anti-tumor activity rating): Active
  TFS at day 176 (tumor free survivors): 2/8
[1]; [11]
  Comments (anti-tumor activity rating): somewhat active
  TFS at day 176 (tumor free survivors): 2
[2]; Bortezomib IV 0.4 mg/kg/injection (total 0.8), nadir d36
  Average body weight loss in % per mouse at nadir (day of nadir): 0.8 (d36) %
[2]; Bortezomib IV 0.6 mg/kg/injection (total 1.2), nadir d40
  Average body weight loss in % per mouse at nadir (day of nadir): 0.6 (d40) %
[2]; Bortezomib IV 1.0 mg/kg/injection (total 2.0), nadir d36
  Average body weight loss in % per mouse at nadir (day of nadir): 7.0 (d36) %
